Legend:
Format in all cases: in vivo
Settings in all cases: controlled atmosphere 28 days followed by 7 days at 20° C.
Neofabraea alba = assay: Postharvest dip trials of apples against Neofabraea alba
Penicillium expansum = assay: Postharvest dip trials of apples against Penicillium expansum
Botrytis cinerea = assay: Postharvest dip trials of apples against Botrytis cinerea

With CCO [Ethanol] the “antimicrobial efficacy indicated as percentage value” (Neofabraea alba; 'Golden Delicious' apples) was 10.41%, the “antimicrobial efficacy indicated as percentage value” (Neofabraea alba; 'Granny Smith' apples) was 21.87% and the “antimicrobial efficacy indicated as percentage value” (Neofabraea alba; 'Pink Lady' apples) was 19.25%. The “antimicrobial efficacy indicated as percentage value” (Penicillium expansum; 'Golden Delicious' apples) was 18.07%, the “antimicrobial efficacy indicated as percentage value” (Penicillium expansum; 'Granny Smith' apples) was 18.75% and the “antimicrobial efficacy indicated as percentage value” (Penicillium expansum; 'Pink Lady' apples) was 0.16%. The “antimicrobial efficacy indicated as percentage value” (Botrytis cinerea; 'Golden Delicious' apples) was 13.98%, the “antimicrobial efficacy indicated as percentage value” (Botrytis cinerea; 'Granny Smith' apples) was 16.53% and the “antimicrobial efficacy indicated as percentage value” (Botrytis cinerea; 'Pink Lady' apples) was 2.88%.
